Assay results reported in patent publication US8404709B2, “Substituted 4-aryl-1,4-dihydro-1,6-naphthyridines and use thereof” (Bayer Intellectual Property GmbH, priority 2007, dated 2013).

Target: T1, human mineralocorticoid receptor (MR) (Homo sapiens, UniProt P08235)
T1 construct: expressed in transfected cells; host or cells: CHO K1
T1 sequence (P08235 734-984 limits assumed): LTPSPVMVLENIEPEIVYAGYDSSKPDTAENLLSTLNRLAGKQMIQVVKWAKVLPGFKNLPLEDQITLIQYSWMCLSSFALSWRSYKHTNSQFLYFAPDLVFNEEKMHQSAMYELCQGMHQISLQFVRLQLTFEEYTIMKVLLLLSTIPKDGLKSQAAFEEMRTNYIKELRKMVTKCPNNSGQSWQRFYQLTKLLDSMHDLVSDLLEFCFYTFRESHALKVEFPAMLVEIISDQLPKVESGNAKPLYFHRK
Experiment: Cellular in vitro assay to determine the inhibitory MR activity (GAL4-MR chimera, luciferase reporter, CHO K1 cells)
Format: cell-based
Details: recombinant CHO K1 cells, GAL4-MR ligand-binding domain chimera, agonist aldosterone, luciferase readout
Text: 1. Cellular In Vitro Assay to Determine the Inhibitory MR Activity and MR Selectivity Compared with other Steroid Hormone Receptors
Antagonists of the human mineralocorticoid receptor (MR) are identified, and the activity of the compounds described herein is quantified with the aid of a recombinant cell line. The cell is originally derived from a hamster ovary epithelial cell (Chinese Hamster Ovary, CHO K1, ATCC: American Type Culture Collection, VA 20108, USA).
An established chimera system in which the ligand-binding domains of human steroid hormone receptors are fused to the DNA-binding domain of the yeast transcription factor GAL4 is used in this CHO K1 cell line. The GAL4-steroid hormone receptor chimeras produced in this way are cotransfected and stably expressed with a reporter construct in the CHO cells.
To generate the GAL4-steroid hormone receptor chimeras, the GAL4 DNA binding domain (amino acids 1-147) from the vector pFC2-dbd (from Stratagene) is cloned with the PCR-amplified ligand-binding domains of the mineralocorticoid receptor (MR, amino acids 734-985), of the glucocorticoid receptor (GR, amino acids 443-777), of the progesterone receptor (PR, amino acids 680-933) and of the androgen receptor (AR, amino acids 667-919) into the vector pIRES2 (from Clontech). The reporter construct, which comprises five copies of the GAL4 binding site upstream of a thymidine kinase promoter, leads to expression of firefly-luciferase (Photinus pyralis) after activation and binding of the GAL4-steroid hormone receptor chimeras by the respective specific agonists aldosterone (MR), dexamethasone (GR), progesterone (PR) and dihydrotestosterone (AR).
The MR, GR, PR and AR cells are plated out in medium (Optimem, 2.5% FCS, 2 mM glutamine, 10 mM HEPES) in 96- (or 384- or 1536-) well microtiter plates on the day before the assay and are kept in a cell incubator (96% humidity, 5% v/v CO2, 37° C.). On the day of the assay, the substances to be tested are taken up in the abovementioned medium and added to the cells. About 10 to 30 minutes after addition of the test substances, the respective specific agonists of the steroid hormone receptors are added. After a further incubation time of 5 to 6 hours, the luciferase activity is measured with the aid of a video camera. The measured relative light units as a function of the substance concentration result in a sigmoidal stimulation curve. The IC50 values are calculated with the aid of the GraphPad PRISM computer program (Version 3.02).

Structure (SMILES)	IC50
CCOc1nc(C)cc2c1C(c1ccc(C#N)cc1OC)C(C#N)=C(C)N2 (stereo not drawn) [Example 35, 4-(4-Cyano-2-methoxyphenyl)-5-ethoxy-2,7-dimethyl-1,4-dihydro-1,6-naphthyridine-3-carbonitrile]	122 nM
CCOc1ncc(C)c2c1C(c1ccc(C#N)cc1OC)C(C#N)=C(C)N2 (stereo not drawn) [Example 37, 4-(4-Cyano-2-methoxyphenyl)-5-ethoxy-2,8-dimethyl-1,4-dihydro-1,6-naphthyridine-3-carbonitrile]	73 nM
CCOc1nccc2c1C(c1cccc3c(=O)cc(C)oc13)C(C#N)=C(C)N2 (stereo not drawn) [Example 4, 5-Ethoxy-2-methyl-4-(2-methyl-4-oxo-4H-chromen-8-yl)-1,4-dihydro-1,6-naphthyridine-3-carbo-nitrite]	273 nM
CCOc1nccc2c1C(c1ccc(C#N)cc1OC)C(C#N)=C(C)N2 (stereo not drawn) [Example 25, 4-(4-Cyano-2-methoxyphenyl)-5-ethoxy-2-methyl-1,4-dihydro-1,6-naphthyridine-3-carbonitrile]	87 nM
CCOc1nccc2c1C(c1ccc(C#N)c3ccccc13)C(C(C)=O)=C(C)N2 (stereo not drawn) [Example 32, 4-(3-Acetyl-5-ethoxy-2-methyl-1,4-dihydro-1,6-naphthyridin-4-yl)-1-naphthonitrile]	4 nM
CCOc1nccc2c1C(c1ccc(C#N)cc1OC)C(C#N)=C(C(F)(F)F)N2 (stereo not drawn) [Example 33, 4-(4-Cyano-2-methoxyphenyl)-5-ethoxy-2-(trifluoromethyl)-1,4-dihydro-1,6-naphthyridine-3-carbonitrile]	35 nM
CCS(=O)(=O)Oc1nccc2c1C(c1cccc3c(=O)cc(C)oc13)C(C(C)=O)=C(C)N2 (stereo not drawn) [Example 10, 3-Acetyl-2-methyl-4-(2-methyl-4-oxo-4H-chromen-8-yl)-1,4-dihydro-1,6-naphthyridin-5-yl ethane-sulfonate]	75 nM
CCOc1nccc2c1C(c1ccc(C#N)cc1CC)C(C(C)=O)=C(C)N2 (stereo not drawn) [Example 24, 4-(3-Acetyl-5-ethoxy-2-methyl-1,4-dihydro-1,6-naphthyridin-4-yl)-3-ethylbenzonitrile]	31 nM
CCOc1nccc2c1C(c1ccc(C#N)cc1OC(F)(F)F)C(C(C)=O)=C(C)N2 (stereo not drawn) [Example 21, 4-(3-Acetyl-5-ethoxy-2-methyl-1,4-dihydro-1,6-naphthyridin-4-yl)-3-(trifluoromethoxy)benzonitrile]	30 nM
